The values that follow are results of earlier work, collected in US20100086625A1, “METHODS FOR TREATING SKIN LESIONS” (priority 2008, published 2010).

The data set relates to cold sores. To be noted: oral.

Turning to `CC(=O)OCC(CCn1cnc2cnc(N)nc21)COC(C)=O` [famciclovir], where the note is “1500 mg”, the “shortening of the herpes infection” value is listed as “two”.
As to `CC(C)[C@H](N)C(=O)OCCOCn1cnc2c(=O)[nH]c(N)nc21` [valacyclovir], the “shortening of a herpes infection” value (2 gm twice a day for one day) was “over one”.
